Results on one compound are retold here after patent US4080442A, “Disaccharide derivatives used in the treatment of hepatic diseases” (Meito Sangyo Kabushiki Kaisha, priority 1975, dated 1978).

This assay deals with experimental hepatitis induced by D-galactosamin. Description: Conjoint use of glutathione in experimental hepatitis induced by D-galactosamin. Format: in vivo, female Wistar rats. The settings on record: GSH 5 mg/rat, GSSH 5 mg/rat, AS 75 mg/rat, mixtures: GSH or GSSH 5 mg/rat + AS 75 mg/rat, average value ± S.E. The procedure: Groups each of 10 female Wistar rats of 100 - 120 gram body weight put on a fast of 2 hours prior to the experiment were used. […] One hour after these administrations, all of the groups were administered with D-galactosamin. The administration of the D-galactosamin was performed in the following manner. […] After completion of this administration, the fasted state was continued. Twenty-two hours after the administration of the D-galactosaminhydrochloride, blood was taken from the abdominal aorta and measured for the GOT, GPT, bilirubin and blood glucose contained in the blood plasma. The GOT and GPT were measured by the Reitman-Frankel Method, the bilirubin by the Evelyn-Malloy Method and the blood glucose by the […].
The effects obtained by using injection mixtures of either a reduced type glutathione or an oxidized type glutathione and a sucrose derivative obtained by the method of preparing a pharmaceutical composition of the hereinafter-given Example 11 in treating animals suffering from hepatitis induced by D-galactosamin were tested by operating as in I., above.

Consider `N[C@@H](CCC(=O)N[C@@H](CS)C(=O)NCC(=O)O)C(=O)O` [GSH, Reduced type glutathione], for which the GPT (control 1830±432) was 1660±472 Karman U. Under “control 2748±490”, the GOT is given as 2510±510 Karmen U.
